Source: US10351559B2, “Maleate salts of a B-RAF kinase inhibitor, crystalline forms, methods of preparation, and uses therefore” (BeiGene, Ltd., priority 2015, dated 2019)
Counter-ions that a name gives are not always drawn. Like-named read-outs stand apart in the source and are kept apart here.

Key:
[1] = aqueous solubility study; type: physicochemical; conditions: sesqui-maleate salt
[2] = long-term stability study; type: physicochemical
[3] = system: ERK phosphorylation in A375 cells; assay: cellular phospho-ERK TR-FRET assay; type: cell-based; conditions: Homo sapiens, A-375; B-RAF V600E mutant melanoma A375 cells, 1 h treatment
Experimental: (§1) A375, Sk-Mel-28, HT29, Colo205, A431, and HCC827 cell lines were purchased from American Type Culture Collection. All the cell lines used in the cellular assays were cultured in the designated medium supplemented with 10% fetal bovine serum (FBS, Thermo Scientific), 100 units/mL penicillin (Gibco), 0.1 mg/mL streptomycin (Gibco) and in a humidified 37° C. environment with 5% CO2. Cell lines were reinstated from frozen stocks laid down within three passages from the original cells purchased and passaged no more than 30 times.
(§2) Cellular phospho-ERK and phospho-EGFR were measured using a TR-FRET-based method. Cells were seeded at 3×10^4 per well of a 96-well plate and left to attach for 16 hours. Growth medium was then replaced with 100 μL of medium containing no serum. Cells were then treated with a 10-point titration of compound. After 1 h of compound treatment, 50 μL of lysis buffer (Cisbio) were added to each well. Plates were then incubated at room temperature with shaking for 30 min. A total of 16 μL of cell lysate from each well of a 96-well plate was transferred to a 384-well small volume white plate. Lysate from each well was incubated with 2 μL of Eu3+- or Tb3+-cryptate (donor) labeled anti-ERK or anti-EGFR antibody (Cisbio) and 2 μL of D2 (acceptor) labeled anti-phospho-ERK or anti-phospho-EGFR antibody (Cisbio) for 2 h at room temperature. FRET signals were measured using a PHERAstar FS reader (BMG Labtech). IC50 values for ERK or EGFR phosphorylation was determined using GraphPad Prism software.

[4] = system: ERK phosphorylation in Colo205 cells; assay: cellular phospho-ERK TR-FRET assay; type: cell-based; conditions: Homo sapiens, COLO 205; B-RAF V600E mutant Colo205 colorectal cancer cells, 1 h treatment
Experimental: as §1, §2

[5] = system: ERK phosphorylation in HT29 cells; assay: cellular phospho-ERK TR-FRET assay; type: cell-based; conditions: Homo sapiens, HT-29; B-RAF V600E mutant HT29 colorectal cancer cells, 1 h treatment
Experimental: as §1, §2

[6] = system: ERK phosphorylation in Sk-Mel-28 cells; assay: cellular phospho-ERK TR-FRET assay; type: cell-based; conditions: Homo sapiens; B-RAF V600E mutant melanoma Sk-Mel-28 cells, 1 h treatment
Experimental: as §1, §2

[7] = target: CYP2C8 (Homo sapiens, UniProt P10632); assay: CYP inhibition; type: in vitro ADME
[8] = system: drug metabolism enzymes; assay: inhibition of drug metabolism enzymes; type: in vitro ADME; conditions: except CYP2C8 and CYP2C19
[9] = pharmacokinetic comparison of sesqui-maleate and free base, oral; type: in vivo, Beagle dogs; conditions: dogs
Source text: Drugs and reagents: Crystalline Form A* of Compound 1 Sesqui-Maleate with particle sizes of D90=4.1 um, D10=1.5 um, D50=2.4 um after micronization. The material content (purity) was not less than 98.0%.
Experiment animals: Beagle dogs, male and female.
Pharmaceutical preparation: Weigh the appropriate amount of each substance and disperse in 0.5% sodium carboxymethyl cellulose (for the free base of Compound 1) or 0.5% methyl cellulose solution (for Compound 1 Sesqui-Maleate). Prepare a suspension at the desired concentration of Compound 1. All the doses and concentrations of Compound 1 were calculated with free base in this study.
Administration and sample collection: The dosing solutions will be freshly prepared prior to dose administration. The actual body weights and actual volume injected will be recorded accordingly. The dogs were fasted overnight and were allowed to intake food four hours after dosing. Each suspension was administrated orally to dogs at a dose ranged from 0.5 to 15 mg/kg. Blood samples (˜1.0 mL) will be collected at pre-dose and at different times up to 36 hours postdosing via cephalic vein plexus. Whole blood will be processed by centrifugation and plasma samples will be collected and kept at freezer prior to analysis. Plasma samples were processed by protein precipitation. Concentrations of Compound 1 in the plasma samples were determined using a validated liquid chromatography-tandem mass spectrometry (LC-MS/MS) method. The plasma concentration-time data were analyzed using a non-compartmental model using Pharsight WinNonlin.

[10] = oral dose 1 mg/kg (free base), listed as Sesqui-Maleate (Micronized Crystalline Form A*), sesqui-maleate salt, 1 mg/kg

Chain of CYP2C8 (P10632 whole entry): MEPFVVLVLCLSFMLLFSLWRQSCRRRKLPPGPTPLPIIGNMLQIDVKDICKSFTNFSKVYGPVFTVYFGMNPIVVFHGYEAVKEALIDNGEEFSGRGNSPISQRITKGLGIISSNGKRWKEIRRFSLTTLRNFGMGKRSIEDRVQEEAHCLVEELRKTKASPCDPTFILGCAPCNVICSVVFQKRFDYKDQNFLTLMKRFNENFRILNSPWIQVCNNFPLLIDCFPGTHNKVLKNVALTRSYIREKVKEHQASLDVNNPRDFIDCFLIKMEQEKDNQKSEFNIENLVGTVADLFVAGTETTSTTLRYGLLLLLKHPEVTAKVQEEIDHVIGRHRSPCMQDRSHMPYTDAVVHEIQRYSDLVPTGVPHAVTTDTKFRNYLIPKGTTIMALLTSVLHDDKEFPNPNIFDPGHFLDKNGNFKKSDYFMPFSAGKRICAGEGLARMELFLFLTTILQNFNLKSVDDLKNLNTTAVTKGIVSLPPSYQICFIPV

## O=C1CCc2c(Oc3ccc4c(c3)[C@@H]3[C@H](O4)[C@H]3c3nc4ccc(C(F)(F)F)cc4[nH]3)ccnc2N1 [5-(((1R,1aS,6bR)-1-(6-(trifluoromethyl)-1H-benzo[d]imidazol-2-yl)-1a,6b-dihydro-1H-cyclopropa[b]benzofuran-5-yl)oxy)-3,4-dihydro-1,8-naphthyridin-2(1H)-one sesqui-maleate salt]
[1]
  solubility in water: slightly soluble in water
[1]; water, LOQ at 0.001 mg/mL
  aqueous solubility: 20 µg/mL
[2]; 24 month at 25 C/75% RH
  purity after stability study: 98.5%
[2]; 25° C./60% RH up to 18 months and 40° C./75% RH up to 6 months
  crystal form and optical purity changes: no crystal form and optical purity changes were observed
[2]; T0, 25° C./60% RH study
  Assay w/w: 99.1%
[2]; T0, 40° C./75% RH study
  Assay w/w: 99.1%
[2]; T6: 6 months at 40° C./75% RH
  Assay w/w: 98.9%
[2]; T18: 18 months at 25° C./60% RH
  Assay w/w: 98.8%
[3]
  IC50: 32 nM
[4]
  IC50: 53 nM
[5]
  IC50: 103 nM
[6]
  IC50: 77 nM
[7]
  IC50: 1030 nM
[8]
  inhibitory activity on drug metabolism enzymes: no inhibitory activity
[9]; both sexes, beagle, dog, plasma, po, 0.5 mg/kg, oral dose 0.5 mg/kg, read-out: Cmax
  Cmax: 342 ng/mL
[9]; both sexes, beagle, dog, plasma, po, 1.5 mg/kg, oral dose 1.5 mg/kg, read-out: Cmax
  Cmax: 861 ng/mL
[9]; both sexes, beagle, dog, plasma, po, 4.5 mg/kg, oral dose 4.5 mg/kg, read-out: Cmax
  Cmax: 2880 ng/mL
[9]; both sexes, beagle, dog, plasma, po, 15 mg/kg, oral dose 15 mg/kg, read-out: Cmax
  Cmax: 5310 ng/mL
[9]; oral
  AUC0-inf relative to the free base form: 2-3 times
  Cmax relative to the free base form: 2-3 times
[9]; oral dose 0.5 mg/kg
  Dose-Normalized AUC0-inf: 4178 ng·kg·h/mL/mg
[9]; [10]
  Cmax: 607 ng/mL
  Dose-Normalized AUC0-inf: 2960 ng·kg·h/mL/mg
[9]; oral dose 1.5 mg/kg
  Dose-Normalized AUC0-inf: 3726 ng·kg·h/mL/mg
[9]; oral dose 4.5 mg/kg
  Dose-Normalized AUC0-inf: 4390 ng·kg·h/mL/mg
[9]; oral dose 15 mg/kg
  Dose-Normalized AUC0-inf: 2841 ng·kg·h/mL/mg
